Data: ChEMBL document CHEMBL6127053, “Discovery of orally bioavailable phosphonate prodrugs of potent ENPP1 inhibitors for cancer treatment” (Eur J Med Chem, 2024)
pIC50, pKi: −log10 of the molar value. In brackets after ≈: the same amount, converted by molar mass.

Assays:
[1] = Prodrug conversion in dog assessed as half-life of (4-((7-Methoxy-1,8-naphthyridin-4yl)oxy)benzyl)phosphonic acid metabolite at 2 mg/kg, po measured for 24 hrs by LC-MS/MS analysis; assay type: ADME, organism-based, Canis lupus familiaris; conditions: in vivo
[2] = Prodrug conversion in mouse assessed as half-life of (4-((7-Methoxy-1,8-naphthyridin-4yl)oxy)benzyl)phosphonic acid metabolite at 5 mg/kg, po measured for 24 hrs by LC-MS/MS analysis; assay type: ADME, organism-based; conditions: in vivo
Cytochrome P450 3A4 = Cytochrome P450 3A4 (Homo sapiens, UniProt P08684); assay: Inhibition of CYP3A4 (unknown origin); assay type: ADME
Cytochrome P450 3A4, sequence (P08684 whole entry): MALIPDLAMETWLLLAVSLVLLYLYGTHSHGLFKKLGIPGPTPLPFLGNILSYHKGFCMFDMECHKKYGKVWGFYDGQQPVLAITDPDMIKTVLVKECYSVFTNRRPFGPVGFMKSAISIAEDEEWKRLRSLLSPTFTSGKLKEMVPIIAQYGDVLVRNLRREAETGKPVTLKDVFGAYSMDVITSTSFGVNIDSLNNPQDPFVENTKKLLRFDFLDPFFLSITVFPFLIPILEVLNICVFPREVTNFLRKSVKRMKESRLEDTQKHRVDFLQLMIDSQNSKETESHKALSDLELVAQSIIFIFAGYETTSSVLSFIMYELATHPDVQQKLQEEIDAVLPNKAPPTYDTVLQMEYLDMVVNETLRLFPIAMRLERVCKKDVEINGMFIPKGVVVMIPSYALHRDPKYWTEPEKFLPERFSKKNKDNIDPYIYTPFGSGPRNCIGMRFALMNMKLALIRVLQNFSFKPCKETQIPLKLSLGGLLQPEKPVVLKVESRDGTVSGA

Cytochrome P450 2C9 = Cytochrome P450 2C9 (Homo sapiens, UniProt P11712); assay: Inhibition of CYP2C9 (unknown origin); assay type: ADME
Cytochrome P450 2C9, sequence (P11712 whole entry): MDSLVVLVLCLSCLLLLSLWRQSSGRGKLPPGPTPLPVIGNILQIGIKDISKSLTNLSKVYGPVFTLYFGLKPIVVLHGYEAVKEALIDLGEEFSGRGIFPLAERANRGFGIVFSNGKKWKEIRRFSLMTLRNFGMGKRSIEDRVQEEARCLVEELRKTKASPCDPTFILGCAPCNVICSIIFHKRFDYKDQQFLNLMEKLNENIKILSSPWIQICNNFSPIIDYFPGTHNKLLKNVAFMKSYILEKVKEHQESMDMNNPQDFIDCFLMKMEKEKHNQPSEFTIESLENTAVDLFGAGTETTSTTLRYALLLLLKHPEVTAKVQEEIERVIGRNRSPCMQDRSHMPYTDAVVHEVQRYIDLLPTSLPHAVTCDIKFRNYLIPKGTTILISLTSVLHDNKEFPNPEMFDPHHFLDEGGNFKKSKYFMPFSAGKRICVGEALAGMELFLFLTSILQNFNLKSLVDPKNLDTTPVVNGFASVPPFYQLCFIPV

Panc02 [3] = assay: Synergistic antitumor activity against mouse Panc02 cells implanted in C57BL/6 mouse assessed as inhibition of tumor growth by measuring combination ratio at 200 mg/kg, po bid for 35 days and irradiated with 5Gy radiation on days 1,8,15,22,29 and measured on day 35; assay type: functional; conditions: time 35 day
[4] = Prodrug conversion in rat assessed as half-life of (4-((7-Methoxy-1,8-naphthyridin-4yl)oxy)benzyl)phosphonic acid metabolite at 5 mg/kg, po measured for 24 hrs by LC-MS/MS analysis; assay type: ADME, organism-based; conditions: in vivo
[5] = Prodrug conversion in dog assessed as AUC(0 to t) of (4-((7-Methoxy-1,8-naphthyridin-4yl)oxy)benzyl)phosphonic acid metabolite at 2 mg/kg, po measured for 24 hrs by LC-MS/MS analysis; assay type: ADME, organism-based, Canis lupus familiaris; conditions: in vivo
[6] = Prodrug conversion in mouse assessed as oral bioavailability of (4-((7-Methoxy-1,8-naphthyridin-4yl)oxy)benzyl)phosphonic acid metabolite at 5 mg/kg measured for 24 hrs by LC-MS/MS analysis; assay type: ADME, organism-based; conditions: in vivo
physchem = conditions: aqueous, pH 7.4
Description: Aqueous solubility of the compound at pH 7.4

[7] = Toxicity in C57BL/6 mouse implanted with mouse Panc02 cells assessed as effect on body weight at 200 mg/kg, po bid for 35 days; assay type: organism-based; conditions: in vivo, 840 h, time 35 day
Cytochrome P450 2C19 = Cytochrome P450 2C19 (Homo sapiens, UniProt P33261); assay: Inhibition of CYP2C19 (unknown origin); assay type: ADME
Cytochrome P450 2C19, sequence (P33261 whole entry): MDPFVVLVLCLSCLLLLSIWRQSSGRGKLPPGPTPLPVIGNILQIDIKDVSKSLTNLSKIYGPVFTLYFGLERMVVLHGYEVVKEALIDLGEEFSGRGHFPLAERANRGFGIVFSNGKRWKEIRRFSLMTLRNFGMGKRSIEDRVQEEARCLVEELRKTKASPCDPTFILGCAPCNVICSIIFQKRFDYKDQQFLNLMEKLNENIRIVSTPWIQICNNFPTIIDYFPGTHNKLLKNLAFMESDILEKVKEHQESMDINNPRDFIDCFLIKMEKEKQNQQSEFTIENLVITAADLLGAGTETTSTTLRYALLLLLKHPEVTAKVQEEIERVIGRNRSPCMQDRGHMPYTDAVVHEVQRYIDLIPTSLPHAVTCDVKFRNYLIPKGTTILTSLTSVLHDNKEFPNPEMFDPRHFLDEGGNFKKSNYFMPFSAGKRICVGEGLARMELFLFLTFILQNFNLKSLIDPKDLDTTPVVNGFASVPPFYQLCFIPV

[8] = Prodrug conversion in rat assessed as AUC (0 to t) of (4-((7-Methoxy-1,8-naphthyridin-4yl)oxy)benzyl)phosphonic acid metabolite at 5 mg/kg, po measured for 24 hrs by LC-MS/MS analysis; assay type: ADME, organism-based; conditions: in vivo
[9] = Prodrug conversion in C57BL/6 mouse implanted with mouse Panc02 cells assessed as time during which unbound plasma concentration of (4-((7-Methoxy-1,8-naphthyridin-4yl)oxy)benzyl)phosphonic acid metabolite exceeds IC90 for inhibition of ENPP1 in mouse EL4 cells at 200 mg/kg, po bid for 35 days; assay type: ADME, organism-based; conditions: in vivo, 840 h, time 35 day
[10] = Prodrug conversion in rat assessed as oral bioavailability of (4-((7-Methoxy-1,8-naphthyridin-4yl)oxy)benzyl)phosphonic acid metabolite at 5 mg/kg measured for 24 hrs by LC-MS/MS analysis; assay type: ADME, organism-based; conditions: in vivo
Panc02 [11] = assay: Antitumor activity against mouse Panc02 cells implanted in C57BL/6 mouse assessed as inhibition of tumor growth at 200 mg/kg, po bid for 35 days and measured on day 35; assay type: functional; conditions: Panc02, 840 h, time 35 day, read-out: TGI
Panc02 [12] = assay: Synergistic antitumor activity against mouse Panc02 cells implanted in C57BL/6 mouse assessed as inhibition of tumor growth at 200 mg/kg, po bid for 35 days and irradiated with 5Gy radiation on days 1,8,15,22,29 and measured on day 35 (reference value: 26%); assay type: functional; conditions: Panc02, light or radiation study, 840 h, time 35 day, read-out: TGI
[13] = Prodrug conversion in dog assessed as oral bioavailability of (4-((7-Methoxy-1,8-naphthyridin-4yl)oxy)benzyl)phosphonic acid metabolite at 2 mg/kg measured for 24 hrs by LC-MS/MS analysis; assay type: ADME, organism-based, Canis lupus familiaris; conditions: in vivo
[14] = biological target: Voltage-gated inwardly rectifying potassium channel KCNH2 (Homo sapiens, UniProt Q12809); assay: Inhibition of hERG; assay type: toxicity
Voltage-gated inwardly rectifying potassium channel KCNH2, sequence (Q12809 whole entry): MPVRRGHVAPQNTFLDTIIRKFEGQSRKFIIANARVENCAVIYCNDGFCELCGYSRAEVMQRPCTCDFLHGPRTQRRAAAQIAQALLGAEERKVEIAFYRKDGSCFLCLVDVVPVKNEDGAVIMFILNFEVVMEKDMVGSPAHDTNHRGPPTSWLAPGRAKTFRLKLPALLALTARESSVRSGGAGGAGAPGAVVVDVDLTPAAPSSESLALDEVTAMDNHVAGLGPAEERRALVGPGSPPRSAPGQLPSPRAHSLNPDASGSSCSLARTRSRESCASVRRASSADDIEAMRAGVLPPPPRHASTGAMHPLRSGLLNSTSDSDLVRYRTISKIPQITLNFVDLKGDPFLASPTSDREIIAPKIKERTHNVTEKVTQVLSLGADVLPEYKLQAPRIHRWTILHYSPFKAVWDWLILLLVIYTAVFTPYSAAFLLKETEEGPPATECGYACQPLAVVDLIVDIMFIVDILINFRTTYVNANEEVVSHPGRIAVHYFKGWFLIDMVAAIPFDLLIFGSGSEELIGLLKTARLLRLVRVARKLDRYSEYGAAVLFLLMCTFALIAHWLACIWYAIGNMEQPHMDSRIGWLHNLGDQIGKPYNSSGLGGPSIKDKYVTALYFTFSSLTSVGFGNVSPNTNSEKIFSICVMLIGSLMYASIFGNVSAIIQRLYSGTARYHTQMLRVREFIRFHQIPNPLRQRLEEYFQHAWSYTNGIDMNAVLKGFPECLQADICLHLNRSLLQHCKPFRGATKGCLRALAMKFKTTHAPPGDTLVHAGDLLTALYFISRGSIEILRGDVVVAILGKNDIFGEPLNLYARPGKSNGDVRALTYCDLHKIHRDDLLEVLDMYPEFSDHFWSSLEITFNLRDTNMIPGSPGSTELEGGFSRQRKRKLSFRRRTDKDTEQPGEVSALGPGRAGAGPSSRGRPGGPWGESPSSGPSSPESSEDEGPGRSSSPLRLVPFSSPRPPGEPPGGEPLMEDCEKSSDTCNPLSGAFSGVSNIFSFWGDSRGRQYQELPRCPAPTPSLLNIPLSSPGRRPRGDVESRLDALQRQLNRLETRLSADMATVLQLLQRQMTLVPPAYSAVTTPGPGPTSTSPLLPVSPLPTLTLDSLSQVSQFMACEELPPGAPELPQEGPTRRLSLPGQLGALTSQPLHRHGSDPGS

Cytochrome P450 2D6 = Cytochrome P450 2D6 (Homo sapiens, UniProt P10635); assay: Inhibition of CYP2D6 (unknown origin); assay type: ADME
Cytochrome P450 2D6, sequence (P10635 whole entry): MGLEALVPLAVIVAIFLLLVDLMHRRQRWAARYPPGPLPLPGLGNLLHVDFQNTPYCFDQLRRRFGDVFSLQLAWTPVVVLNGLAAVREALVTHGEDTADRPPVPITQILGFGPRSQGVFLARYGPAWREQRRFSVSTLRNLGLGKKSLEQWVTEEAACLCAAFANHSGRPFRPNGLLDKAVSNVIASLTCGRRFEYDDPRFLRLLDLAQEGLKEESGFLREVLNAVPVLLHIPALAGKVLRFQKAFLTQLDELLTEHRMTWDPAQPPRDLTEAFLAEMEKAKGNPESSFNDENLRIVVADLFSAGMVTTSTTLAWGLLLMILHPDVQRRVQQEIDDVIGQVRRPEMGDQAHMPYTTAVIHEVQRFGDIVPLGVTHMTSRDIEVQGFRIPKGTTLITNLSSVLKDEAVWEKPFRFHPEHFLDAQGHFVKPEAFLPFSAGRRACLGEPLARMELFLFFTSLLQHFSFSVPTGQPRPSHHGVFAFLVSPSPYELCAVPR

[15] = Prodrug conversion in mouse assessed as AUC(0 to t) of (4-((7-Methoxy-1,8-naphthyridin-4yl)oxy)benzyl)phosphonic acid metabolite at 5 mg/kg, po measured for 24 hrs by LC-MS/MS analysis; assay type: ADME, organism-based; conditions: in vivo
Cytochrome P450 1A2 = biological target: T1, Cytochrome P450 1A2 (Homo sapiens, UniProt P05177); assay: Inhibition of CYP1A2 (unknown origin); assay type: ADME
T1 sequence (P05177 whole entry): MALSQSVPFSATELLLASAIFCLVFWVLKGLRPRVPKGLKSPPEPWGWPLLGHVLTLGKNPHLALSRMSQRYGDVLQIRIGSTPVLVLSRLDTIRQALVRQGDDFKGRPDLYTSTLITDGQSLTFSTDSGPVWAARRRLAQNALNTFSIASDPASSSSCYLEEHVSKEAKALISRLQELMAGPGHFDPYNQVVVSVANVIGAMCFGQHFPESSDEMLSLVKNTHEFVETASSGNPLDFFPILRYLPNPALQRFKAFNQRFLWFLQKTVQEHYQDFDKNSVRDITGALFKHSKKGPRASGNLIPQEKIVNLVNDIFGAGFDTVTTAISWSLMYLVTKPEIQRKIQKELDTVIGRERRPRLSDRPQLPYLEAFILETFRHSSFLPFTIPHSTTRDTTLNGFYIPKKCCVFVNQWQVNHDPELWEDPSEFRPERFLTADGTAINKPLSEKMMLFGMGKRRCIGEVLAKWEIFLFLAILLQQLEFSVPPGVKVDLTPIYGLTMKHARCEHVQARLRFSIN

[16] = biological target: T2, Ectonucleotide pyrophosphatase/phosphodiesterase family member 1 (Homo sapiens, UniProt P22413); assay: Inhibition of ENPP1 (unknown origin) at pH 8.8
T2 sequence (P22413 whole entry): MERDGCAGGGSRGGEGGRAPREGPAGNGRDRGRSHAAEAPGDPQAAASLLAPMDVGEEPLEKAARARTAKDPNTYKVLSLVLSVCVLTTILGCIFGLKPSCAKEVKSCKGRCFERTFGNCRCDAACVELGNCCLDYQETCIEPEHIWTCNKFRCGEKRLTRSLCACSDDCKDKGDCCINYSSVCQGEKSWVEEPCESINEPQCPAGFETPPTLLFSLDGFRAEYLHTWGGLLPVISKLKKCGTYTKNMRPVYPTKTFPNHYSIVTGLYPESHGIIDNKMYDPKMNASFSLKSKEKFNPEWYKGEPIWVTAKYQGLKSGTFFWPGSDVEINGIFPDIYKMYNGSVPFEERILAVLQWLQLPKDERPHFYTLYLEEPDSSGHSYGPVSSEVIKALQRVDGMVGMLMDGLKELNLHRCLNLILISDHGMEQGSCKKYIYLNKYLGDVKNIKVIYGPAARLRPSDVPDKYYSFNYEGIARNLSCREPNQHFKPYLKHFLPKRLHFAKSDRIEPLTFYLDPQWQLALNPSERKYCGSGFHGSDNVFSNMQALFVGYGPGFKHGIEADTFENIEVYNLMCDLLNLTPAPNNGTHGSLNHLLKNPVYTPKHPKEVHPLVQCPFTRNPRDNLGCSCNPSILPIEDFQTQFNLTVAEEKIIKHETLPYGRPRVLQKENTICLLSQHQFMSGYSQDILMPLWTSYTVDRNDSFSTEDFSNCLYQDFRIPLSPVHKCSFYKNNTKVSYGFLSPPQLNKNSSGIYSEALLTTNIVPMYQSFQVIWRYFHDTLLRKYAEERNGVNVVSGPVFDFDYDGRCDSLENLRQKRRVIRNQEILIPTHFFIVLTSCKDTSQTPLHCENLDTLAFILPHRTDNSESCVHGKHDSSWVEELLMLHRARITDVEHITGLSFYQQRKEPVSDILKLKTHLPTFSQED

[17] = biological target: T2, Ectonucleotide pyrophosphatase/phosphodiesterase family member 1; assay: Inhibition of ECD-His-tagged human recombinant ENPP1 using 2',3'-cGAMP as substrate preincubated with enzyme for 15 mins followed by substrate addition and incubated in R1 reaction buffer for 1 hr and treated in R2 reaction buffer for 1 hr measured at pH 7.5 by luminescence based analysis
[18] = biological target: T2, Ectonucleotide pyrophosphatase/phosphodiesterase family member 1; assay: Inhibition of ENPP1 (unknown origin) at pH 7.5
[19] = biological target: T3, Ectonucleotide pyrophosphatase/phosphodiesterase family member 1 (Mus musculus, UniProt P06802)
T3 sequence (P06802 whole entry): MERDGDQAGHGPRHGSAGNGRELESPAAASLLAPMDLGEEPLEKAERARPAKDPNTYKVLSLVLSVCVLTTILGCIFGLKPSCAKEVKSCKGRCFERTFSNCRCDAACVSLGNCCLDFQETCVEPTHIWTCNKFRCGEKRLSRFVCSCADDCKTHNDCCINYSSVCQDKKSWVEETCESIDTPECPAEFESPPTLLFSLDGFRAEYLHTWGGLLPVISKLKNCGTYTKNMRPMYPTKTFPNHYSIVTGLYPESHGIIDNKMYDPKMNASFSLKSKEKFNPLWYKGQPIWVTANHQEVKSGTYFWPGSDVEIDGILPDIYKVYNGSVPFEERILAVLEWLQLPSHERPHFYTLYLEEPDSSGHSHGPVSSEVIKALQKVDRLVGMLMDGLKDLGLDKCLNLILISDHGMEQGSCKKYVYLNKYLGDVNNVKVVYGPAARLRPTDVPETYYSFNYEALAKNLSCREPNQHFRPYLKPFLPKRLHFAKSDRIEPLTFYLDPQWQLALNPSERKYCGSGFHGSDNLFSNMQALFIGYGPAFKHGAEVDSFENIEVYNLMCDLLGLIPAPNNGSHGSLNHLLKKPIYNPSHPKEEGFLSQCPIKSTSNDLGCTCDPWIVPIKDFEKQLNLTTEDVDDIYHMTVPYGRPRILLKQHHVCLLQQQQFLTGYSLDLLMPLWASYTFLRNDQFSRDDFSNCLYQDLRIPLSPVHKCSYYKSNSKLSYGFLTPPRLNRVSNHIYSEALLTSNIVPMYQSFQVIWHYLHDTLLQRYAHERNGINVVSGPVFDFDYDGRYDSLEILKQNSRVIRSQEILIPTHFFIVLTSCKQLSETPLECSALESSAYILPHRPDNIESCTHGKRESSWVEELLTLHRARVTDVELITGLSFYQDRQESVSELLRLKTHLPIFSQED

[20] = biological target: T2, Ectonucleotide pyrophosphatase/phosphodiesterase family member 1; assay: Inhibition of human recombinant ENPP1 at pH 8

SMILES: COc1ccc2c(Oc3ccc(CP(=O)(OCOC(=O)C(C)(C)C)OCOC(=O)C(C)(C)C)cc3)ccnc2n1
- t1/2 [1]: 1.8 h
- t1/2 [2]: 4.2 h
- pIC50 (Cytochrome P450 3A4): < 4.30
- pIC50 (Cytochrome P450 2C9): < 4.30
- Ratio (Panc02 [3]): 1.2
- t1/2 [4]: 4.22 h
- AUCt [5]: 793 ng·h/mL
- F [6]: 17%
- solubility (physchem): 20.6 µM (≈ 11.8 µg/mL)
- Activity [7]: Non-Toxic
- pIC50 (Cytochrome P450 2C19): < 4.30
- AUCt [8]: 5984 ng·h/mL
- T>IC90 [9]: 18 h
- F [10]: 39.8%
- inhibition in vivo at 200 mg/kg (Panc02 [11]): 11%
- inhibition in vivo at 200 mg/kg (Panc02 [12]): 51%
- F [13]: 21.1%
- pIC50 [14]: < 4.52
- pIC50 (Cytochrome P450 2D6): < 4.30
- AUCt [15]: 937 ng·h/mL
- pIC50 (Cytochrome P450 1A2): < 4.30

SMILES: COc1ccc2c(Oc3ccc(CP(=O)(O)O)cc3)ccnc2n1
- pIC50 (Cytochrome P450 3A4): < 4.30
- pIC50 (Cytochrome P450 2C9): < 4.30
- pIC50 (Cytochrome P450 2C19): < 4.30
- pIC50 [14]: < 4.52
- pIC50 (Cytochrome P450 2D6): < 4.30
- pIC50 (Cytochrome P450 1A2): < 4.30

SMILES: NC(=O)c1ccc2c(ncn2Cc2ccc(P(=O)(O)O)cc2)n1
- pKi [16]: > 8.00

SMILES: COc1cccc2c(N3CCC(CCP(=O)(O)O)CC3)ncnc12
- pIC50 [17]: 8.21
- pKi [18]: > 8.70
- pIC50 [19]: 8.66

SMILES: COc1ccc2c(Oc3ccc(NS(N)(=O)=O)cc3)ccnc2c1
- pKi [20]: > 7.00

SMILES: COc1ccc2c(Oc3ccc(CC(=O)NO)cc3)ccnc2n1
- pIC50 (Cytochrome P450 3A4): < 4.30
- pIC50 (Cytochrome P450 2C9): < 4.30
- pIC50 (Cytochrome P450 2C19): < 4.30
- pIC50 (Cytochrome P450 2D6): < 4.30
- pIC50 (Cytochrome P450 1A2): < 4.30

SMILES: COc1ccc2c(Oc3ccc(C4(C(=O)NO)CCCC4)cc3)ccnc2n1
- pIC50 (Cytochrome P450 2C9): 5.04
- pIC50 (Cytochrome P450 2C19): 5.09

SMILES: COc1ccc2c(Oc3ccc(CC(=O)NO)cc3)ccnc2c1
- pIC50 (Cytochrome P450 3A4): 4.99
- pIC50 (Cytochrome P450 2C9): 5.64
- pIC50 (Cytochrome P450 2C19): 5.40
- pIC50 (Cytochrome P450 2D6): 5.32
- pIC50 (Cytochrome P450 1A2): 5.09
